Consider six molecules from patent US20070293472A1, “Novel 14 and 15 Membered Ring Compounds” (Glaxo Group Limited, priority 2003, published 2007).

Where a name gives a salt, the structure may show the parent alone.

Common to all, as to assay: MIC, standard broth dilution method in microtitre
Common to all, as to assay type: cell-based
A general note: Dilution methods test growth across graded concentrations, often in twofold steps.

Experiment [1] has as its system S. aureus Smith ATCC 13709. The note with it: Staphylococcus aureus, ATCC13709. As for the experimental part: (§1) Using a standard broth dilution method in microtitre, compounds were tested for antibacterial activity. The compounds in the above examples gave minimum inhibitory concentrations (MICs) less than 1 microgram per millilitre against erythromycin-sensitive and erythromycin-resistant strains of Streptococcus pneumoniae and Streptococcus pyogenes.
(§2) In addition, the MIC (μg/mL) of test compounds against various organisms was determined including:
(§3) S. aureus Smith ATCC 13709, S. pneumoniae SP030, S. pyogenes 3565, E. faecalis ATCC 29212, H. influenzae ATCC 49247, M. catarrhalis ATCC 23246.

The test system of another experiment is S. pneumoniae SP030. The note with it: Streptococcus pneumoniae. The procedure:
as §1, §2, §3

The subject of a further experiment is S. pyogenes 3565. The settings on record: Streptococcus pyogenes. As for the experimental part:
as §1, §2, §3

Another experiment has as its system E. faecalis ATCC 29212. The settings on record: Enterococcus faecalis, ATCC29212. As for the experimental part:
as §1, §2, §3

Experiment [2] deals with erythromycin-resistant strains of Streptococcus pneumoniae. The procedure: as §1
Experiment [3] relates to erythromycin-resistant strains of Streptococcus pyogenes. The procedure: as §1
Experiment [4] relates to M. catarrhalis ATCC 23246. The note with it: Moraxella catarrhalis, ATCC23246. As for the experimental part: as §1, §2, §3
Another experiment concerns H. influenzae ATCC 49247. The settings on record: Haemophilus influenzae, ATCC49247. As for the experimental part:
as §1, §2, §3

Consider `CC[C@H]1OC(=O)[C@H](C)[C@@H](O[C@H]2C[C@@](C)(OC)[C@@H](OC(=O)CCNCCCc3cc4c(cc3F)c(=O)c(C(=O)O)cn4CC)[C@H](C)O2)[C@H](C)[C@@H](O[C@@H]2O[C@H](C)C[C@H](N(C)C)[C@H]2O)[C@](C)(OC)C[C@@H](C)C(=O)[C@H](C)[C@@H](O)[C@]1(C)O` [Example 1, 4″-O-{3-[3-(3-Carboxy-1,4-dihydro-1-ethyl-6-fluoro-4-oxo-7-quinolinyl)propylamino]propionyl}-6-O-methylerythromycin A], for which the MIC (in experiment [1]; against S. pneumoniae SP030; against S. pyogenes 3565; with E. faecalis ATCC 29212) was ≤ 1 µg/mL in each case.
`CC[C@@H]1OC(=O)[C@H](C)[C@H](O[C@@H]2C[C@](C)(OC)[C@H](OC(=O)CCNCCCc3ccc4c(c3)c(=O)c(C(=O)O)cn4CC)[C@H](C)O2)[C@@H](C)[C@H](O[C@@H]2O[C@H](C)C[C@H](N(C)C)[C@@H]2O)[C@](C)(O)C[C@H](C)CN(C)[C@H](C)[C@@H](O)[C@]1(C)O` [Example 5, 4″-O-{3-[3-(3-Carboxy-1,4-dihydro-1-ethyl-4-oxo-6-quinolinyl)propylamino]propionyl}-azithromycin]: the MIC in experiment [2] and in experiment [3] was ≤ 0.25 µg/mL each time.
`CC[C@@H]1OC(=O)[C@H](C)[C@H](O[C@@H]2C[C@](C)(OC)[C@H](OC(=O)CCNCCCc3ccc4c(c3)c(=O)c(C(=O)O)cn4CC)[C@H](C)O2)[C@@H](C)[C@H](O[C@@H]2O[C@H](C)C[C@H](N(C)C)[C@@H]2O)[C@](C)(O)C[C@H](C)CN(C)[C@@H](C)[C@H]2OC(=O)O[C@@]12C` [Example 6, 4″-O-{3-[3-(3-Carboxy-1-dihydro-1-ethyl-4-oxo-6-quinolinyl)propylamino]propionyl}-azithromycin-11,12-carbonate]: the MIC in experiment [2] was ≤ 0.25 µg/mL; in experiment [3], ≤ 0.25 µg/mL; in experiment [1], ≤ 1 µg/mL; against S. pneumoniae SP030 it was ≤ 1 µg/mL; in the experiment on S. pyogenes 3565, ≤ 1 µg/mL; in the experiment on E. faecalis ATCC 29212, ≤ 1 µg/mL. For the same molecule, the MIC (in experiment [4]; with H. influenzae ATCC 49247) was ≤ 2 µg/mL throughout.
For the molecule `CC[C@@H]1OC(=O)[C@H](C)[C@H](O[C@@H]2C[C@](C)(OC)[C@H](OC(=O)CCNCCCc3ccc4c(c3)c(=O)c(C(=O)OC)cn4CC)[C@H](C)O2)[C@@H](C)[C@H](O[C@@H]2O[C@H](C)C[C@H](N(C)C)[C@@H]2O)[C@](C)(OC)C[C@H](C)C(=O)[C@@H](C)[C@H]2NC(=O)O[C@@]12C` [Example 8, 4″-O-{3-[3-(3-Carboxy-1,4-dihydro-1-ethyl-4-oxo-6-quinolinyl)propylamino]propionyl}-6-O-methyl-11-desoxy-11-(R)-amino-erythromycin A 11,12-carbamate methyl ester diformate salt], the MIC in experiment [2] is ≤ 0.25 µg/mL; in experiment [3] it was ≤ 0.25 µg/mL; in experiment [1], ≤ 1 µg/mL; against S. pneumoniae SP030, ≤ 1 µg/mL; with S. pyogenes 3565, ≤ 1 µg/mL; against E. faecalis ATCC 29212, ≤ 1 µg/mL.
On to `CC[C@@H]1OC(=O)[C@H](C)[C@H](O[C@@H]2C[C@](C)(OC)[C@H](OC(=O)CCNCCCc3cc4c(cc3F)c(=O)c(C(=O)O)cn4CC)[C@H](C)O2)[C@@H](C)[C@H](O[C@@H]2O[C@H](C)C[C@H](N(C)C)[C@@H]2O)[C@](C)(O)C[C@H](C)CN(C)[C@H](C)[C@@H](O)[C@]1(C)O` [Example 2, 4″-O-{3-[3-(3-Carboxy-1,4-dihydro-1-ethyl-6-fluoro-4-oxo-7-quinolinyl)propylamino]propionyl}-azithromycin tris trifluoroacetate salt], for which the MIC (in experiment [1]; in the experiment on S. pneumoniae SP030; with S. pyogenes 3565; in the experiment with E. faecalis ATCC 29212) was ≤ 1 µg/mL in each case.
Take `CC[C@@H]1OC(=O)[C@H](C)[C@H](O[C@@H]2C[C@](C)(OC)[C@H](OC(=O)CCNCCCc3ccc4c(c3)c(=O)c(C(=O)O)cn4CC)[C@H](C)O2)[C@@H](C)[C@H](O[C@@H]2O[C@H](C)C[C@H](N(C)C)[C@@H]2O)[C@](C)(OC)C[C@H](C)C(=O)[C@@H](C)[C@H]2NC(=O)O[C@@]12C` [Example 7, 4″-O-{3-[3-(3-Carboxy-1,4-dihydro-1-ethyl-4-oxo-6-quinolinyl)propylamino]-propionyl}-6-O-methyl-11-desoxy-11-(R)-amino-erythromycin A 11,12-carbamate diformate salt]: the MIC in experiment [2] is ≤ 0.25 µg/mL; in experiment [3], ≤ 0.25 µg/mL; in experiment [4] it was ≤ 2 µg/mL; in the experiment with H. influenzae ATCC 49247, ≤ 2 µg/mL.
